From patent EP1779853A2, “9a-azalides as veterinary antimicrobial agents” (Merial Ltd., priority 1997, dated 1999)
≈ marks a conversion by molar mass, not a printed value.

Legend:
Test in all cases: MIC determination (culture tube dilution) against veterinary pathogens
Assay type in all cases: cell-based
Salmonella spp. = settings: one range summarising both compounds
Description: (§1) The antibacterial activity of representative 9a-azalides against a panel of veterinary pathogens was determined by the minimum inhibitory concentration (MIC) method well known in the art. This is done by preparing a series of culture tubes, each containing a medium with a different concnetration of the antimicrobial agent, and inoculating all the tubes with the same organism. The lowest concentration of agent that completely prevents the appearance of turbidity is noted, and this concentration is called the MIC.

A. pleuropneumoniae = settings: Actinobacillus pleuropneumoniae, one range summarising both compounds
Description: as §1

P. haemolytica = settings: Mannheimia haemolytica, one range summarising both compounds
Description: as §1

H. somnus = settings: one range summarising both compounds
Description: as §1

P. multocida = settings: Pasteurella multocida, one range summarising both compounds
Description: as §1

E. coli = settings: Escherichia coli, one range summarising both compounds
Description: as §1

Row | Compound | MIC (Salmonella spp.) | MIC (A. pleuropneumoniae) | MIC (P. haemolytica) | MIC (H. somnus) | MIC (P. multocida) | MIC (E. coli)
1 | CC[C@H]1OC(=O)[C@H](C)[C@@H](O[C@H]2C[C@@](C)(OC)[C@@H](O)[C@H](C)O2)[C@H](C)[C@@H](O[C@@H]2O[C@H](C)C[C@H](N(C)C)[C@H]2O)[C@](C)(O)C[C@@H](C)CN(C)[C@H](C)[C@@H](O)[C@]1(C)O [azithromycin, 9-deoxo-9a-aza-9a-methyl-9a-homoerythromycin A] | 1 to 16 µg/mL (≈ 1.34 to 21.4 µM) | 0.062 to 0.5 µg/mL (≈ 0.0828 to 0.668 µM) | 0.125 to 0.5 µg/mL (≈ 0.167 to 0.668 µM) | 0.062 to 0.25 µg/mL (≈ 0.0828 to 0.334 µM) | 0.125 to 2 µg/mL (≈ 0.167 to 2.67 µM) | 0.5 to 16 µg/mL (≈ 0.668 to 21.4 µM)
2 | CC[C@H]1OC(=O)[C@H](C)[C@@H](O[C@H]2C[C@@](C)(OC)[C@@H](N)[C@H](C)O2)[C@H](C)[C@@H](O[C@@H]2O[C@H](C)C[C@H](N(C)C)[C@H]2O)[C@](C)(O)C[C@@H](C)CN(C)[C@H](C)[C@@H](O)[C@]1(C)O [4"-deoxy-4"-aminoazithromycin] | 1 to 16 µg/mL (≈ 1.34 to 21.4 µM) | 0.062 to 0.5 µg/mL (≈ 0.0829 to 0.668 µM) | 0.125 to 0.5 µg/mL (≈ 0.167 to 0.668 µM) | 0.062 to 0.25 µg/mL (≈ 0.0829 to 0.334 µM) | 0.125 to 2 µg/mL (≈ 0.167 to 2.67 µM) | 0.5 to 16 µg/mL (≈ 0.668 to 21.4 µM)
